Assays:
[1] = system: unselected depression patients; conditions: Cipriani et al. 2018; cited from earlier work
[2] = system: patients with major depressive disorder; assay: Open-label trials of adjunctive agomelatine 25 mg at bedtime; baseline EEG machine learning models predicting change in MADRS; assay type: in vivo, human
Experimental: The inventors conducted two parallel open-label clinical trials of agomelatine at 25 mg once at bedtime in patients with major depressive disorder (NCT05118750 and NCT05157945, whose data was pooled in these analyses). […] Patients were evaluated over the course of eight weeks of treatment.
EEG data were collected at rest (encompassing both eyes open and eyes closed conditions) prior to treatment using a 19-channel EEG system covering the conventional 10-20 electrode locations. A total of 107 patients with moderate to severe depression (MADRS 20 and PHQ-9≥10) had EEG data (107 with eyes open (REO) EEG, 105 with eyes closed (REC) EEG). Quality control assessments were conducted, yielding 105 REO patient datasets and 103 REC patient datasets. […] The training dataset consisted of 60 REO patient datasets and 60 REC patient datasets. The holdout set consisted of […] and […].
In order to compile these individual signals into a single EEG composite entropy model for prediction of treatment outcome, the inventors conducted 10-fold cross-validated machine learning using elastic net regularization against an outcome of high versus low response to agomelatine. Cross-validation divides the training dataset iteratively into 9/10 for training the machine learning model and 1/10 for evaluating the predictive utility of the model (i.e., participants left out of the training itself, though part of the aforementioned training dataset). The training sample is then divided in this way until each participant has been left out of the training subset.
The Cohen's d effect sizes at these weeks are all >0.4, indicating a substantial effect size for the prediction, especially considering that the meta-analytically calculated all-comer (i.e., unselected depression patients) effect size for the difference in treatment response to agomelatine (as monotherapy) versus placebo is d=0.26 (Cipriani et al., Lancet., 2018, 391(10128):1357-1366, PMID: 29477251).
In addition to sample entropy, the inventors developed similar machine learning models to test the predictive utility of a range of other EEG complexity measures, as well as other common EEG indices. […] Thus, certain complexity measures appear to carry consistent and strong prediction of agomelatine outcome.

SMILES: COc1ccc2cccc(CCNC(C)=O)c2c1 [agomelatine, N-[2-(7-methoxynaphthalen-1-yl)ethyl]acetamide]
- all-comer effect size d, treatment response to agomelatine (as monotherapy) versus placebo [1]: 0.26
- Cohen's d effect size, predicted responders vs non-responders, change in MADRS ([2]; EEG sample entropy machine learning model, cross-validation left-out data of training dataset, all weeks): > 0.4
- Cohen's d, prediction of agomelatine outcome ([2]; REC, Approximate Entropy, lower gamma, Week 1): 0.23
- Cohen's d, prediction of agomelatine outcome ([2]; REC, Approximate Entropy, lower gamma, Week 2): 0.29
- Cohen's d, prediction of agomelatine outcome ([2]; REC, Approximate Entropy, lower gamma, Week 4): 0.46
- Cohen's d, prediction of agomelatine outcome ([2]; REC, Detrended Fluctuation Analysis, lower beta, Week 1): 0.49
- Cohen's d, prediction of agomelatine outcome ([2]; REC, Detrended Fluctuation Analysis, lower beta, Week 2): 0.44
- Cohen's d, prediction of agomelatine outcome ([2]; REC, Detrended Fluctuation Analysis, lower beta, Week 4): 0.41
- Cohen's d, prediction of agomelatine outcome ([2]; REC, Detrended Fluctuation Analysis, upper beta, Week 1): 0.19
- Cohen's d, prediction of agomelatine outcome ([2]; REC, Detrended Fluctuation Analysis, upper beta, Week 2): 0.20
- Cohen's d, prediction of agomelatine outcome ([2]; REC, Detrended Fluctuation Analysis, upper beta, Week 4): 0.25
- Cohen's d, prediction of agomelatine outcome ([2]; REC, Higuchi Fractal Dimension, lower beta, Week 1): 0.44
- Cohen's d, prediction of agomelatine outcome ([2]; REC, Higuchi Fractal Dimension, lower beta, Week 2): 0.36
- Cohen's d, prediction of agomelatine outcome ([2]; REC, Higuchi Fractal Dimension, lower beta, Week 4): 0.28
- Cohen's d, prediction of agomelatine outcome ([2]; REC, Higuchi Fractal Dimension, lower gamma, Week 1): 0.64
- Cohen's d, prediction of agomelatine outcome ([2]; REC, Higuchi Fractal Dimension, lower gamma, Week 2): 0.58
- Cohen's d, prediction of agomelatine outcome ([2]; REC, Higuchi Fractal Dimension, lower gamma, Week 4): 0.57
- Cohen's d, prediction of agomelatine outcome ([2]; REC, Higuchi Fractal Dimension, upper beta, Week 1): −0.29
- Cohen's d, prediction of agomelatine outcome ([2]; REC, Higuchi Fractal Dimension, upper beta, Week 2): −0.20
- Cohen's d, prediction of agomelatine outcome ([2]; REC, Higuchi Fractal Dimension, upper beta, Week 4): −0.05
- Cohen's d, prediction of agomelatine outcome ([2]; REC, Higuchi Fractal Dimension, upper gamma, Week 1): 0.16
- Cohen's d, prediction of agomelatine outcome ([2]; REC, Higuchi Fractal Dimension, upper gamma, Week 2): 0.16
- Cohen's d, prediction of agomelatine outcome ([2]; REC, Higuchi Fractal Dimension, upper gamma, Week 4): 0.21
- Cohen's d, prediction of agomelatine outcome ([2]; REC, Katz Fractal Dimension, lower beta, Week 1): 0.47
- Cohen's d, prediction of agomelatine outcome ([2]; REC, Katz Fractal Dimension, lower beta, Week 2): 0.42
- Cohen's d, prediction of agomelatine outcome ([2]; REC, Katz Fractal Dimension, lower beta, Week 4): 0.37
- Cohen's d, prediction of agomelatine outcome ([2]; REC, Katz Fractal Dimension, lower gamma, Week 1): 0.25
- Cohen's d, prediction of agomelatine outcome ([2]; REC, Katz Fractal Dimension, lower gamma, Week 2): 0.23
- Cohen's d, prediction of agomelatine outcome ([2]; REC, Katz Fractal Dimension, lower gamma, Week 4): 0.23
- Cohen's d, prediction of agomelatine outcome ([2]; REC, Katz Fractal Dimension, upper beta, Week 1): 0.42
- Cohen's d, prediction of agomelatine outcome ([2]; REC, Katz Fractal Dimension, upper beta, Week 2): 0.40
- Cohen's d, prediction of agomelatine outcome ([2]; REC, Katz Fractal Dimension, upper beta, Week 4): 0.42
- Cohen's d, prediction of agomelatine outcome ([2]; REC, Katz Fractal Dimension, upper gamma, Week 1): 0.04
- Cohen's d, prediction of agomelatine outcome ([2]; REC, Katz Fractal Dimension, upper gamma, Week 2): 0.10
- Cohen's d, prediction of agomelatine outcome ([2]; REC, Katz Fractal Dimension, upper gamma, Week 4): 0.23
- Cohen's d, prediction of agomelatine outcome ([2]; REC, Largest Lyapunov Exponent, upper alpha, Week 1): 0.10
- Cohen's d, prediction of agomelatine outcome ([2]; REC, Largest Lyapunov Exponent, upper alpha, Week 2): 0.12
- Cohen's d, prediction of agomelatine outcome ([2]; REC, Largest Lyapunov Exponent, upper alpha, Week 4): 0.18
- Cohen's d, prediction of agomelatine outcome ([2]; REC, Largest Lyapunov Exponent, upper gamma, Week 1): −0.02
- Cohen's d, prediction of agomelatine outcome ([2]; REC, Largest Lyapunov Exponent, upper gamma, Week 2): 0.08
- Cohen's d, prediction of agomelatine outcome ([2]; REC, Largest Lyapunov Exponent, upper gamma, Week 4): 0.29
- Cohen's d, prediction of agomelatine outcome ([2]; REC, Lempel-Ziv Complexity, lower gamma, Week 1): −0.06
- Cohen's d, prediction of agomelatine outcome ([2]; REC, Lempel-Ziv Complexity, lower gamma, Week 2): 0.01
- Cohen's d, prediction of agomelatine outcome ([2]; REC, Lempel-Ziv Complexity, lower gamma, Week 4): 0.15
- Cohen's d, prediction of agomelatine outcome ([2]; REC, Lempel-Ziv Complexity, upper alpha, Week 1): 0.21
- Cohen's d, prediction of agomelatine outcome ([2]; REC, Lempel-Ziv Complexity, upper alpha, Week 2): 0.17
- Cohen's d, prediction of agomelatine outcome ([2]; REC, Lempel-Ziv Complexity, upper alpha, Week 4): 0.13
- Cohen's d, prediction of agomelatine outcome ([2]; REC, Modified Multiscale Entropy, lower alpha, Week 1): 0.08
- Cohen's d, prediction of agomelatine outcome ([2]; REC, Modified Multiscale Entropy, lower alpha, Week 2): 0.11
- Cohen's d, prediction of agomelatine outcome ([2]; REC, Modified Multiscale Entropy, lower alpha, Week 4): 0.19
- Cohen's d, prediction of agomelatine outcome ([2]; REC, Modified Multiscale Entropy, lower gamma, Week 1): −0.09
- Cohen's d, prediction of agomelatine outcome ([2]; REC, Modified Multiscale Entropy, lower gamma, Week 2): 0.01
- Cohen's d, prediction of agomelatine outcome ([2]; REC, Modified Multiscale Entropy, lower gamma, Week 4): 0.21
- Cohen's d, prediction of agomelatine outcome ([2]; REC, Modified Multiscale Entropy, upper alpha, Week 1): 0.19
- Cohen's d, prediction of agomelatine outcome ([2]; REC, Modified Multiscale Entropy, upper alpha, Week 2): 0.25
- Cohen's d, prediction of agomelatine outcome ([2]; REC, Modified Multiscale Entropy, upper alpha, Week 4): 0.39
- Cohen's d, prediction of agomelatine outcome ([2]; REC, Multiscale Entropy, upper alpha, Week 1): 0.05
- Cohen's d, prediction of agomelatine outcome ([2]; REO, Approximate Entropy, lower gamma, Week 1): −0.15
- Cohen's d, prediction of agomelatine outcome ([2]; REO, Approximate Entropy, lower gamma, Week 2): −0.05
- Cohen's d, prediction of agomelatine outcome ([2]; REO, Approximate Entropy, lower gamma, Week 4): 0.09
- Cohen's d, prediction of agomelatine outcome ([2]; REO, Detrended Fluctuation Analysis, upper gamma, Week 1): 0.37
- Cohen's d, prediction of agomelatine outcome ([2]; REO, Detrended Fluctuation Analysis, upper gamma, Week 2): 0.33
- Cohen's d, prediction of agomelatine outcome ([2]; REO, Detrended Fluctuation Analysis, upper gamma, Week 4): 0.32
- Cohen's d, prediction of agomelatine outcome ([2]; REO, Higuchi Fractal Dimension, delta, Week 1): −0.15
- Cohen's d, prediction of agomelatine outcome ([2]; REO, Higuchi Fractal Dimension, delta, Week 2): −0.05
- Cohen's d, prediction of agomelatine outcome ([2]; REO, Higuchi Fractal Dimension, delta, Week 4): 0.12
- Cohen's d, prediction of agomelatine outcome ([2]; REO, Higuchi Fractal Dimension, lower beta, Week 1): 0.03
- Cohen's d, prediction of agomelatine outcome ([2]; REO, Higuchi Fractal Dimension, lower beta, Week 2): 0.03
- Cohen's d, prediction of agomelatine outcome ([2]; REO, Higuchi Fractal Dimension, lower beta, Week 4): 0.05
- Cohen's d, prediction of agomelatine outcome ([2]; REO, Higuchi Fractal Dimension, upper gamma, Week 1): 0.04
- Cohen's d, prediction of agomelatine outcome ([2]; REO, Higuchi Fractal Dimension, upper gamma, Week 2): 0.06
- Cohen's d, prediction of agomelatine outcome ([2]; REO, Higuchi Fractal Dimension, upper gamma, Week 4): 0.11
- Cohen's d, prediction of agomelatine outcome ([2]; REO, Katz Fractal Dimension, delta, Week 1): 0.04
- Cohen's d, prediction of agomelatine outcome ([2]; REO, Katz Fractal Dimension, delta, Week 2): 0.07
- Cohen's d, prediction of agomelatine outcome ([2]; REO, Katz Fractal Dimension, delta, Week 4): 0.13
- Cohen's d, prediction of agomelatine outcome ([2]; REO, Katz Fractal Dimension, lower beta, Week 1): 0.28
- Cohen's d, prediction of agomelatine outcome ([2]; REO, Katz Fractal Dimension, lower beta, Week 2): 0.18
- Cohen's d, prediction of agomelatine outcome ([2]; REO, Katz Fractal Dimension, lower beta, Week 4): 0.06
- Cohen's d, prediction of agomelatine outcome ([2]; REO, Katz Fractal Dimension, upper beta, Week 1): 0.24
- Cohen's d, prediction of agomelatine outcome ([2]; REO, Katz Fractal Dimension, upper beta, Week 2): 0.24
- Cohen's d, prediction of agomelatine outcome ([2]; REO, Katz Fractal Dimension, upper beta, Week 4): 0.29
- Cohen's d, prediction of agomelatine outcome ([2]; REO, Largest Lyapunov Exponent, upper alpha, Week 1): 0.03
- Cohen's d, prediction of agomelatine outcome ([2]; REO, Largest Lyapunov Exponent, upper alpha, Week 2): 0.08
- Cohen's d, prediction of agomelatine outcome ([2]; REO, Largest Lyapunov Exponent, upper alpha, Week 4): 0.17
- Cohen's d, prediction of agomelatine outcome ([2]; REO, Largest Lyapunov Exponent, upper gamma, Week 1): −0.24
- Cohen's d, prediction of agomelatine outcome ([2]; REO, Largest Lyapunov Exponent, upper gamma, Week 2): −0.11
- Cohen's d, prediction of agomelatine outcome ([2]; REO, Largest Lyapunov Exponent, upper gamma, Week 4): 0.08
- Cohen's d, prediction of agomelatine outcome ([2]; REO, Lempel-Ziv Complexity, lower gamma, Week 1): −0.24
- Cohen's d, prediction of agomelatine outcome ([2]; REO, Lempel-Ziv Complexity, lower gamma, Week 2): −0.13
- Cohen's d, prediction of agomelatine outcome ([2]; REO, Lempel-Ziv Complexity, lower gamma, Week 4): 0.02
- Cohen's d, prediction of agomelatine outcome ([2]; REO, Lempel-Ziv Complexity, theta, Week 1): 0.13
- Cohen's d, prediction of agomelatine outcome ([2]; REO, Lempel-Ziv Complexity, theta, Week 2): 0.14
- Cohen's d, prediction of agomelatine outcome ([2]; REO, Lempel-Ziv Complexity, theta, Week 4): 0.17
- Cohen's d, prediction of agomelatine outcome ([2]; REO, Lempel-Ziv Complexity, upper beta, Week 1): 0.19
- Cohen's d, prediction of agomelatine outcome ([2]; REO, Lempel-Ziv Complexity, upper beta, Week 2): 0.21
- Cohen's d, prediction of agomelatine outcome ([2]; REO, Lempel-Ziv Complexity, upper beta, Week 4): 0.30
- Cohen's d, prediction of agomelatine outcome ([2]; REO, Modified Multiscale Entropy, upper beta, Week 1): 0.08
- Cohen's d, prediction of agomelatine outcome ([2]; REO, Modified Multiscale Entropy, upper beta, Week 2): 0.15
- Cohen's d, prediction of agomelatine outcome ([2]; REO, Modified Multiscale Entropy, upper beta, Week 4): 0.31
- Cohen's d, prediction of agomelatine outcome ([2]; REO, Multiscale Entropy, lower gamma, Week 1): −0.41
- Cohen's d, prediction of agomelatine outcome ([2]; REO, Multiscale Entropy, lower gamma, Week 2): −0.21
- Cohen's d, prediction of agomelatine outcome ([2]; REO, Multiscale Entropy, lower gamma, Week 4): 0.05
- MADRS change, high vs low Pz low-gamma sample entropy ([2]; z≥0.27, full study sample, all weeks): strong and statistically significant prediction of treatment outcome across all weeks
